Results as given in US20230406883A1, “COMPOUNDS AND THEIR USE IN TREATMENT OF TACHYKININ RECEPTOR MEDIATED DISORDERS” (Embark Biotech ApS, priority 2020, published 2023).
Where two headings read alike, the source gives them in different places. Numbered stars: 1 amine (or outer) side, 2 acyl side, 3 side chain; on linkers, the order of the positions; unused ones are H or OH. Square brackets hold non-standard residues; d marks the D form. Peptide text beside a SMILES is read from it. * marks the point of attachment. C18 diacid = O=C(O)CCCCCCCCCCCCCCCCC(=O)*; γGlu = O=C(O)[C@H](CCC(=O)[*:2])N[*:1]; Stearoyl = CCCCCCCCCCCCCCCCCC(=O)*; NMeL = CN[C@@H](CC(C)C)C(=O)O; hSer = N[C@@H](CCO)C(=O)O; Nle = CCCC[C@H](N)C(=O)O; AEEA = NCCOCCOCC(=O)O; Aib = CC(C)(N)C(=O)O

Experiments:
hNK1R = target: T1, hNK1R (Homo sapiens, UniProt P25103); assay: IP3 assay (inositol trisphosphate, 3H-myoinositol) in transiently transfected COS-7 cells; type: cell-based; details: for EC50: 0.2% ovalbumin buffer
T1 construct: host or cells: COS-7
Outline: (§1)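 COS-7 cells were transiently transfected with receptor plasmid and labelled with ³H-myo-inositol. Cells were lysed in formic acid, and ³H-inositol phosphates were captured on SPA YSI beads and counted.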

hNK2R [1] = target: T2, hNK2R (Homo sapiens, UniProt P21452); assay: as above; type: cell-based; details: for EC50: 0.2% ovalbumin buffer
T2 construct: host or cells: COS-7
T2 sequence (P21452 1-398): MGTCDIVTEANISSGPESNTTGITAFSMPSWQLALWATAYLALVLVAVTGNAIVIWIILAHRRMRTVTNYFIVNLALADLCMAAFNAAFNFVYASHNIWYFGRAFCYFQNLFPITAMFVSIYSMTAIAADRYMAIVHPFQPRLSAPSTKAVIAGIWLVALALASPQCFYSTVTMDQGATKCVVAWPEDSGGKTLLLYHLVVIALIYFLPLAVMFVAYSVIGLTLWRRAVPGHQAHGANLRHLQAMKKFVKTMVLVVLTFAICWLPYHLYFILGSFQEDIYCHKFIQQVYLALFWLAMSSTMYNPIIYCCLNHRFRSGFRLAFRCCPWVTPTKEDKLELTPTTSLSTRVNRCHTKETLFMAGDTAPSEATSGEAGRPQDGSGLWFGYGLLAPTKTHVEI
Outline: as §1

hNK3R = target: T3, hNK3R (Homo sapiens, UniProt P29371); assay: as above; type: cell-based; details: for EC50: 0.2% ovalbumin buffer, read-out: hNK3, IP3 EC50
T3 construct: host or cells: COS-7
T3 sequence (P29371 1-465): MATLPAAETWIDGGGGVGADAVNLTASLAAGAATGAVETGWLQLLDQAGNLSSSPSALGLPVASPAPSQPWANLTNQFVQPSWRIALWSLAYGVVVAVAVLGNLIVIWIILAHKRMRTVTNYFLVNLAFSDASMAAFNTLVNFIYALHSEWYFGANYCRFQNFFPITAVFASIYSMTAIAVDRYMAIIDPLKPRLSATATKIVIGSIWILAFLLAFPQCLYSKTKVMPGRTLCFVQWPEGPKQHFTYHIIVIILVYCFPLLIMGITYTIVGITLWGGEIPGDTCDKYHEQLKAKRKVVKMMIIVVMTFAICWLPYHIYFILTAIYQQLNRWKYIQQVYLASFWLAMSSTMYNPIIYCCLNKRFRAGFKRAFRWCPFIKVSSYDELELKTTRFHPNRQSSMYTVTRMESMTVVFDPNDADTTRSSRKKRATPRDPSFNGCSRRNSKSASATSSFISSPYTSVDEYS
Outline: as §1

hNK2R [2] = target: T2, hNK2R; assay: Indirect human serum albumin binding by IP3 assay, 0.2% ovalbumin vs 1% HSA; type: cell-based
Experimental: (§2) Agonist-induced G-protein coupled receptor (GPCR) activation was measured by an Inositol-1,4,5-Trisphosphate [^3H] Radioreceptor Assay (IPs Assay). Assays were carried out using COS-7 cells transiently transfected by calcium phosphate transfection with a vector pcDNA3.1(+) encoding one of the indicated receptors (Genscript). Briefly, DNA mixed with CaCl2 (2 M) and TE-buffer (10 mM Tris-HCl, 1 mM EDTA, pH 7.5) was dropwise added to 2×HBS (50 mM HEPES, 280 mM NaCl, 1.5 mM NaH2PO4, pH 7.2) and incubated for 45 min at room temperature (22±2° C.). The mixture and a final concentration of 100 μM Chloroquine were added to the cells and left to incubate for 5 hours at 37° C. under standard cell culture conditions (10% CO2) before changing medium to fresh medium containing 5 μl/mL Myo-[2-^3H(N)]-inositol (labeling medium).
The indirect HSA binding IP3 assay takes advantage of the tachykinin receptors' ability to induce production of the inositol trisphosphate (IP3) second messenger upon agonist (ligand) binding on receptor expressing cells following an initial ^3H-inositol labeling period. The assay relies on the assumption that high peptide HSA binding will result in low receptor-mediated production of the second messenger IP3. Thus, the assay is an indirect assessment HSA binding.
Assay solutions used: Wash buffer (HBSS), Assay buffer 0.2% OvAlb (HBSS+10 mM LiCl and 0,2% w/v ovalbumin) or Assay buffer 1% HSA (HBSS+10 mM LiCl and 1% w/v HSA), Lysis buffer (10 mM formic acid), and SPA YSI beads (12.5 mg/ml in H2O). The assay was performed the day after transfection. Briefly, labelling medium was aspirated, and plates were washed ×1 in wash buffer before adding 100 μl assay buffer 0.2% OvAlb or assay buffer 1% HSA, pre-incubated for 30 min followed by 120 min incubation with agonist, both at 37° C. After incubation, plates were immediately placed on ice and the incubation medium was aspirated and 40 μl of 10 mM formic acid per well was added. Plates were incubated for at least 30 min on ice. 60 μl (1 mg/well) SPA YSI beads/well was pipetted into a solid white 96 wells plate and 35 μl of the lysis solution was transferred to the plate before covering plates with seal cover and shaking for 10 min. (max speed). Centrifuge plates and leave for 8 hours at room temperature before counting the plates in a MicroBeta plate counter (Perkin Elmer).

in vivo = assay: in vivo; set-up: species or system mice; details: mouse, sc, 0.5 mg/kg, Half-life
Experimental: Pharmacokinetics: To evaluate the in vivo half-life of individual peptide analogues we used wild type lean mice at around 10 weeks of age injected once with a peptide analogue. For each sample time point 3-4 mice were used and blood was drawn from the submandibular vein at indicated time points following injection. Prior to injection mice were given ad libitum access to standard chow diet. Mice were subcutaneously injected with 0.5 mg/kg peptide analogue in a volume of 2 ml/kg. The amount of peptide analogue and metabolite(s) present in blood samples were measured by TF-LC-MS and MetID-LC-MS, respectively. Sample preparation: One volume of plasma is precipitated with three volumes of ethanol (with internal standard). The mixture is centrifuged at 13000 g for 20 min. One volume of supernatant is diluted with two volumes of Milli-Q water (1% formic acid). Calibration curve: peptide analogue was spiked into blank mouse plasma. Range: 0.5 to 2000 nM (linear 1/x2).

hNK2R [3] = target: T2, hNK2R; assay: Hithunter cAMP assay (Gs-coupling) in transfected COS-7 cells; type: cell-based
Experimental: as §2, with “As a secondary measure of agonist-induced” for “Agonist-induced”, “activation cyclin adenosine monophosphate (cAMP)” for “activation”, “the Hithunter cAMP-assay from DiscoverX.” for “an Inositol-1,4,5-Trisphosphate [^3H] Radioreceptor Assay (IPs Assay).”, “maintenance medium.” for “medium containing 5 μl/mL Myo-[2-^3H(N)]-inositol (labeling medium).”
The cAMP-assay takes advantage of the tachykinin receptors' ability to induce production of the cAMP second messenger upon agonist (ligand) binding on receptor expressing cells. Production of cAMP stems from receptor coupling to Gs-protein although coupling to Gq-protein (IP3-production) is considered the primary signalling mechanism by tachykinin receptors.
The assay was performed the day after transfection. Briefly, maintenance medium was aspirated, and plates were washed ×1 in HBSS before adding assay buffer (HBSS+1 mM IBMX), pre-incubated for 30 min at 37° C. followed by 15 min incubation with agonist (ligand) at 37° C. After incubation, plates were subjected to cell lysis and anti-cAMP-antibody incubation as described by manufacturer. Luminescence was measured with EnVision Multimode Plate Reader from Perkin Elmer.

hNK2R [4] = target: T2, hNK2R; assay: 3H-NKA competitive binding on transfected COS-7 cells; details: competition with 3H-NKA, 4 h at 4 C
Experimental: as §2, with “Assays” for “Agonist-induced G-protein coupled receptor (GPCR) activation was measured by an Inositol-1,4,5-Trisphosphate [^3H] Radioreceptor Assay (IPs Assay). Assays”, “maintenance medium.” for “medium containing 5 μl/mL Myo-[2-^3H(N)]-inositol (labeling medium).”
The ^3H-NKA binding assay measures peptide-receptor binding by a competitive principle of receptor binding between radioactively labelled (3H) NKA (tracer) and synthesized peptide ligands on live cells expressing the receptor of interest. Assay solutions used: TKR buffer (50 mM Tris/HCl pH 7.5, 5 mM MnCl2, and 150 mM NaCl), wash buffer (TKR buffer+0.2% w/v OvAlb), binding buffer (wash buffer+0.1 mg/ml Bacitracin), and tracer solution (binding buffer+˜15000 cpm/well ^3H-tracer). The assay was performed on ice the day after transfection.
Briefly, maintenance medium was aspirated, and plates were washed ×1 in cold wash buffer before adding 100 μl cold binding buffer and placing at 4° C. to let plates cool. The cold plates were added indicated peptides (ligand) immediately followed by addition of cold tracer solution (˜15000 cpm/well). Plates were immediately moved to 4° C. and incubated for 4 hours. After incubation, binding was stopped by wash ×2 with cold wash buffer before adding 225 μl Ultima Gold XR. Plates were shaken at medium speed for approximately 30 min and left overnight at room temperature before counting the plates in a MicroBeta plate counter (Perkin Elmer).

[5] = COS-7 cells, figure legends: percent of 10^-6 M NKA
[6] = 0.2% ovalbumin, read-out: hNK2R, Albumin binding EC50 (nM)-ovalbumin
[7] = 1% HSA, read-out: hNK2R, Albumin binding EC50 (nM)-1% human serum albumin

T1 sequence (P25103 whole entry): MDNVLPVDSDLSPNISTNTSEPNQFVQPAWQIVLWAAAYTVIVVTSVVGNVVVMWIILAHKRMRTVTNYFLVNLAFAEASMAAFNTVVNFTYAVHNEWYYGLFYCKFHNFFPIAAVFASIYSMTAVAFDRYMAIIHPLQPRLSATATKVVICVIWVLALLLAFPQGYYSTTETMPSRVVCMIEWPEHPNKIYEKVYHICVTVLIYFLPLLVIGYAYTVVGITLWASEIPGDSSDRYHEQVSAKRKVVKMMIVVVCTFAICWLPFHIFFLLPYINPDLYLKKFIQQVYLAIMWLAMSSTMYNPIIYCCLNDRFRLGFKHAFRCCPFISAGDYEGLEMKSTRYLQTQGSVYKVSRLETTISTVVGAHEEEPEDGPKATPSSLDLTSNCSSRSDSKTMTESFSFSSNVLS

SMILES | EC50 (hNK1R; COS-7 cells) | hNK1R, IP3 Efficacy (hNK1R; [5]) | EC50 (hNK2R [1]; COS-7 cells) | hNK2R, IP3 Efficacy (hNK2R [1]; [5]) | EC50 (hNK3R; COS-7 cells) | hNK3, IP3 Efficacy (hNK3R; [5]) | hNK2R, Albumin binding Efficacy (%)-ovalbumin (hNK2R [2]; 0.2% ovalbumin) | EC50 (hNK2R [2]; [6]) | hNK2R, Albumin binding Efficacy (%)-1% human serum albumin (hNK2R [2]; 1% HSA) | EC50 (hNK2R [2]; [7]) | half-life (in vivo) | hNK1R, IP3 Efficacy (hNK1R) | hNK2R, IP3 Efficacy (hNK2R [1]) | hNK3, IP3 Efficacy (hNK3R) | hNK2R, cAMP Efficacy (hNK2R [3]) | EC50 (hNK2R [4]) | EC50 (hNK2R [3]; COS-7 cells) | hNK2R, cAMP Efficacy (hNK2R [3]; COS-7 cells)
CCCCCCCCCCCCCCCCCC(=O)N[C@@H](CCC(=O)NCCOCCOCC(=O)NCCOCCOCC(=O)N[C@@H](CC(=O)O)C(=O)N[C@@H](CCCCN)C(=O)N[C@@H](Cc1ccc(O)cc1)C(=O)N[C@H](C(=O)NCC(=O)N(C)[C@@H](CC(C)C)C(=O)N[C@@H](CCCC)C(N)=O)C(C)C)C(=O)O [compound 390, *Asp;Lys;Tyr;Val;Gly;NmLeu;Nle;NH2] ({Stearoyl-γGlu-AEEA-AEEA}-DKYVG[NMeL][Nle]-NH2) | 3.9 nM | 88% | 1 nM | 100% | 14 nM | 100% | 100% | 1 nM | 90% | 0.7 nM | 1.7 h | – | – | – | – | – | – | –
CCCCCCCCCCCCCCCCCC(=O)N[C@@H](CCC(=O)NCCOCCOCC(=O)NCCOCCOCC(=O)N[C@@H](CC(=O)O)C(=O)N[C@@H](CCCCN)C(=O)N[C@@H](Cc1ccc(O)cc1)C(=O)N[C@H](C(=O)NCC(=O)N(C)[C@@H](CC(C)C)C(=O)N[C@@H](CCOC)C(N)=O)C(C)C)C(=O)O [compound 391, *Asp;Lys;Tyr;Val;Gly;NmLeu;Metox;NH2] ({Stearoyl-γGlu-AEEA-AEEA}-DKYVG[NMeL][hSer](Me)-NH2) | 3.4 nM | 100% | 0.9 nM | 90% | 4 nM | 100% | 100% | 0.9 nM | 90% | 0.6 nM | – | – | – | – | – | – | – | –
CCCC[C@H](NC(=O)[C@H](CC(C)C)NC(=O)C(C)(C)NC(=O)[C@@H](NC(=O)[C@H](Cc1ccc(O)cc1)NC(=O)[C@H](CCCCN)NC(=O)[C@H](CC(=O)O)NC(=O)COCCOCCNC(=O)COCCOCCNC(=O)CC[C@H](NC(=O)CCCCCCCCCCCCCCCCC(=O)O)C(=O)O)C(C)C)C(N)=O [compound 395, *Asp;Lys;Tyr;Val;Aib;Leu;Nle;NH2] ({C18 diacid-γGlu-AEEA-AEEA}-DKYV[Aib]L[Nle]-NH2) | – | – | 9 nM | – | – | – | – | – | – | – | – | 0% | 68% | 0% | 0% | ~104 nM | – | –
COCC[C@H](NC(=O)[C@H](CC(C)C)N(C)C(=O)CNC(=O)[C@@H](NC(=O)[C@H](Cc1ccc(O)cc1)NC(=O)[C@H](CCCCN)NC(=O)[C@H](CC(=O)O)NC(=O)COCCOCCNC(=O)COCCOCCNC(=O)CC[C@H](NC(=O)CCCCCCCCCCCCCCCCC(=O)O)C(=O)O)[C@@H](C)O)C(N)=O [compound 366, *Asp;Lys;Tyr;Thr;Gly;NmLeu;Metox;NH2] ({C18 diacid-γGlu-AEEA-AEEA}-DKYTG[NMeL][hSer](Me)-NH2) | – | 0% | 12 nM | 100% | – | 0% | – | – | – | – | – | – | – | – | – | ~104 nM | ~120 nM | 80%
